Data set [1] in a line: Plasma pharmacokinetics after single bolus intraperitoneal administration. It counts as in vivo, C57B16 mice. Conditions: IP 3 mg/kg. The procedure: The pharmacokinetics of 13.HCl was evaluated after a single bolus intraperitoneal administration (3 mg/kg) in male and female C57B16 mice on a commercial rodent diet and water ad libitum prior to the study. Compound plasma levels were determined by LC-MS/MS and the pharmacokinetic parameters were determined using WinNonlin software (Pharsight Co., Mountain View, Calif.). Dosing solutions (0.6 mg/mL) were prepared in a vehicle comprising 2% hydropropyl-β-cyclodextrin in phosphate-buffered saline (PBS). Each time point (pre-dose, 5, 10, 15, 30, 60, 120, 240, 480, 1440 min post-dose) was dosed as N=3/sex. Each blood sample was collected via cardiac puncture after euthanasia with CO2 and placed in chilled tubes containing sodium heparin. Samples were centrifuged at 4° C. at 13,000 rpm for 5 min followed by extracted with acetonitrile and then analyzed.
The pharmacokinetics of 44.HCl and 37.HCl were evaluated after a single bolus intraperitoneal administration (3 mg/kg) in male C57B16 mice on a commercial rodent diet and water ad libitum prior to the study. Compound plasma levels were determined by LC-MS/MS and the pharmacokinetic parameters were determined using WinNonlin software (Pharsight Co., Mountain View, Calif.). Dosing solutions (0.6 mg/mL) were prepared in a vehicle comprising 2% hydropropyl-β-cyclodextrin in phosphate-buffered saline (PBS). Each time point (pre-dose, 5, 10, 15, 30, 60, 120, 240, 480, 1440 min post-dose) was dosed as
N=3/sex. Each blood sample was collected via cardiac puncture after euthanasia with CO2 and placed in chilled tubes containing sodium heparin. Samples were centrifuged at 4° C. at 13,000 rpm for 5 min followed by extracted with acetonitrile and then analyzed.

The test system of data set [2] is IL6-induced hepcidin expression in HepG2 cells. Put plainly: IL6-induced hepcidin expression in HepG2 hepatoma cells. It is filed as cell-based, human. Conditions: pretreatment 5-625 nM for 30 min, IL6 50 ng/mL 1.5 h; FIG. 7. The procedure: HepG2 cells pretreated with compound 13 (5-625 nM) or vehicle for 30 min. were incubated with IL6 (50 ng/mL) for 1.5 h. Cells were harvested, and hepcidin mRNA and 18S rRNA levels were measured by quantitative RT-PCR. Changes in gene expression were normalized to 18S ribosomal RNA levels using the relative cycle threshold method.

In another data set the test system is hepcidin. Put plainly: Hepcidin expression in IL-6-expressing transgenic zebrafish. It is filed as in vivo. Conditions: 6 uM by bathing overnight; 7 days postfertilization; FIG. 22. The procedure:
IL-6 expression was driven in the cardiomyocytes of living zebrafish by mating transgenic zebrafish expressing the Gal4 protein under the control of the cardiac myosin light chain 2 (cmlc) promoter with transgenic zebrafish carrying the human IL-6 gene under the control of a UAS upstream activation sequence (IL-6). Animals carrying both transgenes expressed IL-6 in their cardiomyocytes. IL-6-expressing animals were treated with 6 uM compound 13 or DMSO control by bathing overnight (FIG. 22). At 7 days postfertilization, animals were lysed, total RNA was extracted, and hepcidin expression levels were determined by quantitative RT-PCR with normalization to the housekeeping gene RPL13.

For data set [3], the system named is constitutively-active mutant form of ALK2.
In a further data set the test system is PDGFR-mediated signaling. In words: PDGF-induced AKT phosphorylation, cellular ELISA in PaSMCs. It is filed as cell-based, murine. The procedure:
To test the relative effects of dorsomorphin and structurally-related compounds upon PDGFR-mediated signaling, PDGF-induced AKT phosphorylation was measured by cellular ELISA via the detection of phospho-AKT in PaSMCs treated with compounds for 10 min. followed by PDGF for 30 min.
(In general: ELISA stands for enzyme-linked immunosorbent assay.)

For data set [4] the following is noted: C57BL/6, mouse, in vivo, ip, 3 mg/kg, 8 h.
Experimental: Preliminary pharmacokinetic studies were performed by intraperitoneally administering to wild-type mice (C57BL/6) one dose (3 mg/kg) of compound 13 (FIG. 23). Pharmacokinetics via plasma levels of compound 13 were serially measured in individual mice at varying intervals after injection by LC-MS/MS (n=3 mice each point, mean±s.d.).
The next data set has as its system hematopoietic stem cells. Put plainly: Frequency of hematopoietic stem cells in bone marrow, multicolor flow cytometry. Conditions: 3 mg/kg/d IP for 30 days; versus vehicle-injected controls; FIG. 15. It counts as in vivo, C57BL/6 mice. The procedure:
Ten week-old male C57BL/6 mice were treated chronically with compound 13 (3 mg/kg/d IP) for 30 days, and bone marrow harvested and subjected to multicolor flow cytometry to quantify hematopoietic stem cell lineages based on cell surface marker expression.

Data set [5] deals with turpentine-challenged C57BL/6 mice. Put plainly: Turpentine-induced hypoferrinemia, 24 h after one turpentine injection. It is filed as in vivo. As for the experimental part: Mice received a subcutaneous injection of turpentine, and 24 h later, serum was obtained for measurement of iron concentrations. Compound 13 (3 mg/kg) or vehicle was administered ip concurrently with turpentine and 12 hours later.

The subject of another data set is KDR-mediated signaling. Put plainly: Antagonism of KDR-mediated signaling (not shown). Conditions: compound 13 versus dorsomorphin.
For data set [6], the system named is BMP-induced phosphorylation of SMAD1/5/8. In words: BMP4-induced phosphorylation of SMAD1/5/8, cytoblot (cellular ELISA). Conditions: Mus musculus; FIG. 1; approximate; read-out: functional IC50, BMP4-induced SMAD1/5/8 phosphorylation. It counts as cell-based, murine. The procedure:
Murine pulmonary artery smooth muscle cells were isolated, explanted and cultured as previously described (see […] et al. Am. J. Physiol. Lung Cell Mol. Physiol. 280:[…], 2001) and then grown to confluence in 96 well tissue culture plates. Cells were incubated in serum-free medium for 18 h, and then incubated with recombinant BMP2, BMP4, BMP6, BMP9, GDF5, TGF-β, or Activin A ligands (R&D Systems, Minneapolis, Minn.) at varying concentrations in duplicate for 20 minutes. […] Specificity for BMP-mediated signaling was determined separately using a modification of the cellular ELISA technique assaying for the activation of SMAD2 or SMAD3 via TGF-β, or Activin A. A corresponding IC50 was calculated for the effects of these compounds upon those signaling pathways.

The text below walks through data of patent publication US9045484B2, “Inhibitors of the BMP signaling pathway” (The Brigham and Women's Hospital, Inc., priority 2008, dated 2015).

The structures appear in SMILES notation. Like-named read-outs stand apart in the source and are kept apart here.

In general, Tmax refers to the time at which the peak concentration occurs. The Cmax is the maximum level reached in the sampled fluid or tissue. Regarding `c1ccc2c(-c3cnn4cc(-c5ccc(N6CCNCC6)cc5)cnc34)ccnc2c1` [Compound 13, 4-[6-(4-piperazin-1-ylphenyl)pyrazolo[1,5-a]pyrimidin-3-yl]quinoline], the Tmax in data set [1] (C57B16, mouse, female mice, read-out: tmax) was less than 5 min; in data set [1] (C57B16, mouse, male mice, read-out: tmax), less than 5 min; in data set [1] (female mice) it was less than 5 min; in data set [1] (male mice) it was less than 5 min. In addition, the figures for the “AUC∞” value in data set [1] (female mice) and in [1] (male mice) were 1.03 µg·h/mL and 0.994 µg·h/mL, respectively. In addition, the values for the Cmax in data set [1] (female mice) and in data set [1] (male mice) were 1.29 µM and 1.54 µM, respectively. Also, the t1/2 in data set [1] (female mice) and in data set [1] (male mice) was 96 min each time. Further, the “IL6-mediated increase in hepcidin mRNA levels” value in data set [2] was “abrogated the IL6-mediated increase in hepcidin mRNA levels in a dose-dependent fashion”. For the same compound, the “hepcidin expression in IL-6-expressing animals” value in the data set with hepcidin was “reduced hepcidin expression to wild-type levels”. Further, the “ectopic calcification and disability” value in data set [3] (FOP mutant mice, 3 mg/kg ip twice daily, FIG. 14) is “prevented the ectopic calcification and disability”. For the same compound, the skeletal development result in data set [3] (wild type mice, 3 mg/kg BID) is reported as “exhibited normal skeletal development”. In addition, the “selectivity for BMP signaling versus PDGF signaling” value in the data set on PDGFR-mediated signaling is on record as “improves upon the selectivity”. The IC50 with PDGFR-mediated signaling (Mus musculus, PASMC, compounds 10 min, then PDGF 30 min, FIG. 2, read-out: functional IC50, PDGF-induced AKT phosphorylation) is roughly 2 µM; in data set [6], 0.005 to 0.01 µM. Moreover, the “plasma levels relative to in vitro IC50 for BMP4-mediated activation of Smad1/5/8” value in data set [4] is 5 fold. Also, the “frequency of hematopoietic stem cells in the marrow” value with hematopoietic stem cells is reported as “No significant difference”. In [5] (3 mg/kg ip with turpentine and 12 hours later, FIG. 8), the “turpentine-induced reduction in serum iron levels” value was “prevented turpentine-induced reduction in serum iron levels”. In [5] (two doses 3 mg/kg IP every 12 hours, FIG. 9), the “hepatic hepcidin mRNA levels after turpentine” value is listed as “prevented elevation of hepatic hepcidin mRNA levels”. The “antagonism of KDR-mediated signaling” value with KDR-mediated signaling is reported as “five- to six-fold reduction”.
